Converted amounts (≈) assume the structure as drawn. The source made the active and inactive calls. The calls are words filed in the database; no cut-off is given here.
Key:
Myzus persicae [1] = test: Antifeedant activity against adult of Myzus persicae (green peach aphid) in Hordeum vulgare by choice test; assay type: functional, organism-based
Spodoptera littoralis [2] = test: Antifeedant activity against L6 larvae of Spodoptera littoralis in Solanum tuberosum by choice test; assay type: functional, organism-based
[3] = tested on: Leptinotarsa decemlineata; test: Antifeedant activity against adult of Leptinotarsa decemlineata in […] by choice test; assay type: functional, organism-based
Hordeum vulgare = test: Phytotoxicity against Hordeum vulgare (barley) assessed as photosynthetic efficiency in leaf; assay type: organism-based; conditions: in vivo
Rhopalosiphum padi [4] = test: Antifeedant activity against adult of Rhopalosiphum padi in Hordeum vulgare by choice test; assay type: functional, organism-based
Rhopalosiphum padi [5] = test: Antifeedant activity against adult of Rhopalosiphum padi in barley leaf assessed as noningestion time at 10 ug/cm2 after 2 hr by electronic recording; assay type: functional
Rhopalosiphum padi [6] = test: Antifeedant activity against adult of Rhopalosiphum padi in barley leaf assessed as salivation time at 1 ug/cm2 after 2 hr by electronic recording; assay type: functional
Rhopalosiphum padi [7] = test: Antifeedant activity against adult of Rhopalosiphum padi in barley leaf assessed as ingestion time at 1 ug/cm2 after 2 hr by electronic recording; assay type: functional
Rhopalosiphum padi [8] = test: Antifeedant activity against adult of Rhopalosiphum padi in barley leaf assessed as salivation time at 2 ug/cm2 after 2 hr by electronic recording; assay type: functional
Rhopalosiphum padi [9] = test: Antifeedant activity against adult of Rhopalosiphum padi in barley leaf assessed as noningestion time at 1 ug/cm2 after 2 hr by electronic recording; assay type: functional
Rhopalosiphum padi [10] = test: Antifeedant activity against adult of Rhopalosiphum padi in barley leaf assessed as noningestion time at 2 ug/cm2 after 2 hr by electronic recording; assay type: functional
Rhopalosiphum padi [11] = test: Antifeedant activity against adult of Rhopalosiphum padi in barley leaf assessed as ingestion time at 2 ug/cm2 after 2 hr by electronic recording; assay type: functional
Rhopalosiphum padi [12] = test: Antifeedant activity against adult of Rhopalosiphum padi in barley leaf assessed as ingestion time at 10 ug/cm2 after 2 hr by electronic recording; assay type: functional
Rhopalosiphum padi [13] = test: Antifeedant activity against adult of Rhopalosiphum padi in barley leaf assessed as salivation time at 10 ug/cm2 after 2 hr by electronic recording; assay type: functional
Myzus persicae [14] = test: Insecticidal activity against adult of Myzus persicae (green peach aphid) in Hordeum vulgare at 50 ug/cm2 by choice test; assay type: functional
[15] = tested on: Leptinotarsa decemlineata; test: Insecticidal activity against adult of Leptinotarsa decemlineata assessed as mortality at 10 ug/insect treated as hemolymph injection measured up to 3 days; assay type: functional
[16] = tested on: Leptinotarsa decemlineata; test: Insecticidal activity against adult of Leptinotarsa decemlineata in […] at 2 ug/cm2 by choice test; assay type: functional, organism-based
Rhopalosiphum padi [17] = test: Insecticidal activity against adult of Rhopalosiphum padi in Hordeum vulgare assessed as mortality at 2 to 10 ug/cm2 by choice test; assay type: functional
[18] = Cytotoxicity against Cricetulus griseus CHO (Chinese hamster ovary) cells after 48 hr by MTT assay; assay type: cell-based; conditions: read-out: ED50
[19] = Cytotoxicity against Spodoptera frugiperda (fall armyworm) Sf9 cells after 48 hr by MTT assay; assay type: cell-based; conditions: read-out: ED50
Spodoptera littoralis [20] = test: Insecticidal activity against adult of Spodoptera littoralis in Solanum tuberosum at 50 ug/cm2 by choice test; assay type: functional, organism-based
Rhopalosiphum padi [21] = test: Antifeedant activity against adult of Rhopalosiphum padi in Hordeum vulgare assessed as total settling at 10 ug/cm2 by choice test; assay type: functional
Myzus persicae [22] = test: Antifeedant activity against adult of Myzus persicae (green peach aphid) in Hordeum vulgare assessed as total settling at 50 ug/cm2 by choice test; assay type: functional
Rhopalosiphum padi [23] = test: Antifeedant activity against adult of Rhopalosiphum padi in Hordeum vulgare assessed as total settling at 50 ug/cm2 by choice test; assay type: functional
Myzus persicae [24] = test: Antifeedant activity against adult of Myzus persicae (green peach aphid) in Hordeum vulgare assessed as total settling at 10 ug/cm2 by choice test; assay type: functional

Row | SMILES | EC50 (Myzus persicae [1]) [nmol/cm2] | Activity (Spodoptera littoralis [2]) | EC50 [3] [nmol/cm2] | Activity (Hordeum vulgare) | EC50 (Rhopalosiphum padi [4]) [nmol/cm2] | also measured
1 | CC1=CCC(C(C)(C)Cl)OC1C(Br)Br (centres undefined) [PANTONEURINE AB] | 100 | inactive | 2.4 | Non-toxic | > 100 | –
2 | CC1=C[C@](C)(/C=C/Cl)C=CC1=O | 200 | inactive | 21.2 | Non-toxic | 200 | –
3 | CC(C)=CCC/C(C)=C/CC/C(C)=C/CO [FARNESOL] | 67.1 | – | 107.3 | – | 7.9 | –
4 | C[C@]1(/C=C/Cl)C[C@](Cl)(CBr)[C@@H](Br)C[C@H]1Cl | 1 | inactive | 39.3 | Non-toxic | 1.2 | Time (Rhopalosiphum padi [5]): 60 min; Time (Rhopalosiphum padi [6]): 12 min; Time (Rhopalosiphum padi [7]): 0.1 min; Time (Rhopalosiphum padi [8]): 0 min; Time (Rhopalosiphum padi [9]): 48 min; Time (Rhopalosiphum padi [10]): 60 min; Time (Rhopalosiphum padi [11]): 0 min; Time (Rhopalosiphum padi [12]): 0 min; Time (Rhopalosiphum padi [13]): 0 min
5 | C=C(C)[C@@H]1[C@H]2OC(=O)[C@@H]1[C@]1(O)C[C@H]3O[C@]34C(=O)O[C@H]2[C@]14C [PICROTOXININ] | > 100 | – | 27.5 | – | > 100 | –
6 | Cl[C@H]1[C@H](Cl)[C@@H](Cl)[C@@H](Cl)[C@H](Cl)[C@H]1Cl [LINDANE] | – | – | 0.1 | – | – | mortality at 50 µg/cm2 (Myzus persicae [14]): 100%; mortality [15]: 100%; Activity [16]: Active; mortality (Rhopalosiphum padi [17]): >50%; EC50 (Spodoptera littoralis [2]): 16.8 nmol/cm2; CC50 at 48 h [18]: > 100 µg/mL; CC50 at 48 h [19]: 0.001 µg/mL (≈ 0.00344 µM); Activity (Spodoptera littoralis [20]): Active
7 | CC(Br)(CCl)[C@@H]1C[C@H](O)[C@](C)(/C(Cl)=C/Br)O1 (some centres undefined) [FUROPLOCAMIOID C] | 3.7 | inactive | 19.1 | Non-toxic | 1.6 | Activity (Rhopalosiphum padi [21]): 17%; Activity (Myzus persicae [22]): <50%; Activity (Rhopalosiphum padi [23]): 50%; Activity (Myzus persicae [24]): 17%; CC50 at 48 h [18]: 8.09 µg/mL (≈ 20.4 µM); CC50 at 48 h [19]: 0.03 µg/mL (≈ 0.0756 µM)
8 | CC(=C/C[C@@H](O)[C@](C)(Br)CCl)/C(Cl)=C/Br [PREFUROPLOCAMIOID] | 25.3 | inactive | > 100 | Non-toxic | 38.9 | –
9 | Cc1ccc(C(C)C)c(O)c1 [THYMOL] | 30.9 | – | 3.6 | – | 23.7 | –
10 | CC(=O)O[C@H]1C[C@H](C(C)(Br)CCl)O[C@@]1(C)/C(Cl)=C/Br (some centres undefined) | 50 | inactive | 17.1 | Non-toxic | > 100 | –
11 | CC(=O)OC(C/C=C(/C)C(Cl)C(Br)Br)C(C)(Br)CCl (centres undefined) | – | inactive | 70 | Non-toxic | 70 | –
12 | C[C@@]1(Cl)C[C@@](C)(/C=C/Cl)[C@H](Cl)C[C@H]1Cl | 1 | inactive | 13 | Non-toxic | 15.9 | –
13 | CC1=CCC(C(C)(Cl)CCl)OC1C(Br)Br (centres undefined) | > 100 | inactive | 8.3 | Non-toxic | > 100 | –
14 | C[C@]1(/C=C/Cl)C[C@@](C)(Cl)[C@H](Cl)C[C@H]1Cl | > 100 | inactive | 30.1 | Non-toxic | 63 | –
15 | C[C@]1(/C=C/Cl)C[C@](Cl)(CBr)[C@@H](Cl)C[C@H]1Cl [VIOLACENE] | 5.1 | inactive | 140 | Non-toxic | 2.5 | Activity (Rhopalosiphum padi [21]): 17%; Time (Rhopalosiphum padi [5]): 60 min; Activity (Myzus persicae [22]): <50%; Activity (Rhopalosiphum padi [23]): 50%; Time (Rhopalosiphum padi [6]): 8 min; Time (Rhopalosiphum padi [7]): 0.2 min; Time (Rhopalosiphum padi [8]): 0.5 min; mortality [15]: 80%; Time (Rhopalosiphum padi [9]): 51.8 min; Activity (Myzus persicae [24]): 17%; CC50 at 48 h [18]: 29.8 µg/mL (≈ 84.1 µM); Time (Rhopalosiphum padi [10]): 59.5 min; Time (Rhopalosiphum padi [11]): 0 min; Time (Rhopalosiphum padi [12]): 0 min; CC50 at 48 h [19]: 0.023 µg/mL (≈ 0.0648 µM); Time (Rhopalosiphum padi [13]): 0 min
16 | CC(Br)(CCl)[C@H]1C[C@H](O)[C@](C)(/C(Cl)=C/Br)O1 (some centres undefined) [FUROPLOCAMIOID A] | – | inactive | 18.9 | Non-toxic | > 100 | –
17 | C[C@]1(/C=C/Cl)C[C@@](C)(Cl)[C@H](Cl)C[C@@H]1Cl [MERTENSENE] | 150 | inactive | 150 | Non-toxic | 16.6 | Time (Rhopalosiphum padi [5]): 15 min; Time (Rhopalosiphum padi [6]): 40 min; Time (Rhopalosiphum padi [7]): 3 min; Time (Rhopalosiphum padi [8]): 48 min; Time (Rhopalosiphum padi [9]): 17 min; Time (Rhopalosiphum padi [10]): 15 min; Time (Rhopalosiphum padi [11]): 1 min; Time (Rhopalosiphum padi [12]): 0 min; Time (Rhopalosiphum padi [13]): 45 min
18 | CC(=O)O[C@H]1C[C@@H](C(C)(Br)CCl)O[C@@]1(C)/C(Cl)=C/Br (some centres undefined) | – | inactive | – | Non-toxic | > 100 | –
19 | C=C1C[C@](C)(/C=C/Cl)[C@H](Cl)C[C@H]1Cl | 7.1 | inactive | 12.9 | Non-toxic | 44.2 | –
